According to patent publication US10781212B2, “2,6-diamino pyridine compounds” (Eli Lilly and Company, priority 2018, dated 2020):
One block for each compound: values may come before it.

Columns and labels:
[1] = Elimination pathways in bile duct cannulated Beagle dogs; assay type: in vivo; conditions: IV 1 mg/kg
Method: (§1) Liquid Chromatograph with Tandem Mass Spectrometry (LC-MS/MS) Method for Pharmacokinetic Assays: Samples are extracted using a protein precipitation by adding 180 μL of MeOH:ACN (1:1, v/v) containing an internal standard and 25 μL (rodent samples) or 50 μL(non-rodent samples) of plasma. Samples are then diluted with Methanol:Water (1:1, v/v) to get concentrations within standard curve range. Diluted samples are analyzed by LC-MS/MS using a Sciex API 4000 triple quadrupole mass spectrometer (Applied Biosystems/MDS; Foster City, Calif.) equipped with a TurbolonSpray interface, and operated in positive ion mode. The analytes are chromatographically separated using a Thermo Betasil C18 5 um 20×2.1 mm Javelin column (rodent samples) or Advantage ECHIELON C18 4 um 20 mm×2.1 mm ID column (non-rodent samples). LC conditions are Water/1 M ammonium bicarbonate, (2000:10, v/v) (Mobile Phase A), and MeOH/1 M ammonium bicarbonate, (2000:10, v/v) (Mobile Phase B).
Example 1 is administered by a single intravenous (IV; 1 mg/kg; volume of 1 mL/kg) dose in vehicle. Blood is collected from each animal at 0, 0.033, 0.083, 0.25, 0.5, 1, 2, 4, 8, 12, 24, 32, 48 and 72 h post-dosage. Bile is collected from each animal at 1, 2, 3, 4, 5, 6, 12, 18, 24, 32, 48 and 72 h post-dosage. Urine is collected at 12, 24, 48, and 72 h and feces collected at 24, 48, and 72 h post-dosage. The plasma, bile, urine and feces concentrations of Example 1 are determined by a LC-MS/MS method as described above.

[2] = Pharmacokinetics in Beagle dogs; assay type: in vivo
Method: as §1
Example 1 is administered by a single oral (PO; 3 mg/kg; volume of 2 mL/kg) or intravenous (IV; 1 mg/kg; volume of 1 mL/kg) dose in vehicle. Blood is collected from each animal at 0, 0.03 (IV group only), 0.08 (IV), 0.25, 0.5, 1, 2, 4, 8, 12, 24, 32 (IV), 48 (IV), and 72 (IV) h post-dosage. The plasma concentrations of Example 1 are determined by a LC-MS/MS method as described above.

human KHK-A = human KHK-A (Homo sapiens (Human), UniProt P50053); assay: KHK enzyme activity assay, human KHK-A; assay type: biochemical; conditions: fructose 1.25 mM, ATP 150 μM; read-out: hKHK-A IC50
Method: (§2) KHK Enzyme Activity Assay for Human KHK-C and Human KHK-A
(§3) Enzyme is prepared in assay buffer [50 mM 4-(2-hydroxyethyl)piperazine-1-ethanesulfonic acid (HEPES), 10 mM potassium chloride, 100 mM magnesium chloride, 2 mM tris(2-carboxyethyl)phosphine (TCEP), 0.01% n-octyl glucoside] and incubated with compounds at RT for 15 min. The reaction is carried out in 100 μL volumes containing substrate concentrations of fructose (250 μM for KHK-C assay and 1.25 mM for KHK-A assay) and ATP (150 μM for both isoforms); which are further incubated at RT for 20 min. The reaction is then halted by the addition of stop buffer; consisting of 0.2% formic acid and 1 μg/ml ^13C6-fructose-6-phosphate (^13C6-F6P) internal standard. […] RapidFire MS Analysis for Quantitation of F1P: […]
(§4) Solvent A, used for sample loading and washing, is 6 mM octylamine (Acros Organics 129495000) brought to pH 5.0 using acetic acid. […] Samples are sequentially analyzed by aspirating 10 μL onto the collection loop under vacuum directly from multiwell plates. […]
(§5) The triple quadrupole mass spectrometer is equipped with an ESI source and analytes are monitored using selected reaction monitoring (SRM) in negative mode [M−H]−. F1P is monitored at m/z 259.02/96.9 and ^13C6-fructose-6-phosphate is monitored at m/z 264.99/97. The area ratio values for F1P is calculated using ^13C6-fructose-6-phosphate as internal standard.

human hepatocytes = assay: Intrinsic clearance in human hepatocytes (-/+ABT); assay type: in vitro ADME; conditions: with vs without ABT (pan-CYP450 inhibitor)
Method: Intrinsic Clearance in Human Hepatocytes (−/+ABT)
This method is intended to identify in vitro metabolic clearance by substrate depletion in hepatocytes. Incubation in the presence and absence of ABT, a pan-CYP450 enzyme inhibitor, is used to estimate the contribution of CYP-mediated metabolism. Cryopreserved human hepatocytes are thawed at 37° C., spun down and reconstituted in hepatocyte maintenance media to a density of 1×10^6 viable cells/mL. To a pre-warmed 96-well plate, 196 μL of the hepatocyte suspension is added to each well. The cells are pre-incubated with and without ABT as follows: for ABT pre-incubation, 2 μL of 100 mM ABT solution is added (2 μL of media without ABT is added to control samples), and the plate incubated at 37° C. for 30 min under constant shaking (˜600 rpm). Following, 2 μL of a 30 μM stock solution of test article is added and at 0, 15, 30, 60, 120, 240 min 20 μL aliquots are taken and quenched by transfer to ACN containing internal standard. Following centrifugation at 4000 rpm for 30 min, supernatant concentrations are determined by LC-MS/MS. Clearance is calculated from the slope of % compound remaining over time.

[3] = Pharmacokinetics in cynomolgus monkeys; assay type: in vivo; conditions: cynomolgus monkey, plasma, PO 10 mg/kg
Method: as §1
The compounds is administered by a single oral (PO; 10 mg/kg; volume of 5 mL/kg) dose in vehicle. Blood is collected from each animal at 0, 0.25, 0.5, 1, 2, 4, 8, 12, 24, 32, 48, and 72 h post-dosage. The plasma concentrations of Example 1 are determined by a LC-MS/MS method as described above.

OATP1B3 = OATP1B3 (Homo sapiens (Human), UniProt Q9NPD5); assay: Inhibition of OATP1B3 (rosuvastatin uptake); assay type: cell-based; conditions: rosuvastatin 400 nM substrate, 30 min pre-incubation
Method: (§6) Inhibition of OATP1B1 and OATP1B3
(§7) The OATP1B1, OATP1B3, and vector control (VC) cells are grown in 5% CO2 at 37° C. in a humidified atmosphere in DMEM supplemented with 10% FBS, 50 μg/mL gentamycin, and 5 μg/mL blasticidin. The cells are seeded in 24-well BioCoat Poly-D-Lysine plates. The cells are treated with 5 mM sodium butyrate in supplemented DMEM 24 h prior to experimentation. Cell cultures are washed twice with pre-warmed PBS prior to experimentation. After washing, all cell types are incubated for 30 min at 37° C. in 200 μL buffer, buffer plus varying concentration of test article, or with appropriate positive control inhibitor. Based upon preliminary data concentrations from 0.025 to 12.5 μM for OATP1B1 and 0.20 to 100 μM for OATP1B3 (nominal) are tested. At the start of the preincubation, 50 µL of buffer is removed for determination of in-well test article concentrations by LC-MS/MS. Following the pre-incubation period, the buffer is removed. […] Samples are taken from each well from plates to count for radioactivity and protein concentration in each well is determined by bicinchoninic acid method. IC50 values are determined by fitting the data using GraphPad Prism. Nominal concentrations are converted to measured concentrations prior to fitting.

[4] = Pharmacokinetics in FVB wild type mice; assay type: in vivo; conditions: mouse, IV 1 mg/kg
Method: as §1
(§8) Example 1 is administered by a single intravenous (IV; 1 mg/kg; volume of 1 mL/kg) dose in vehicle. Blood is collected from each animal at 0, 0.08, 0.25, 0.5, 1, 2, 4, 8, 12, and 24 h post-dosage. Liver, spleen, and pancreas is collected, weighed and perfused at 24 h post-dosage. The plasma and tissue concentrations of Example 1 are determined by a LC-MS/MS method as described above.

human KHK-C = human KHK-C (Homo sapiens (Human), UniProt P50053); assay: KHK enzyme activity assay, human KHK-C; assay type: biochemical; conditions: fructose 250 μM, ATP 150 μM; read-out: hKHK-C IC50
Method: as §2, §3, §4, §5

OATP1B1 = OATP1B1 (Homo sapiens (Human), UniProt Q9Y6L6); assay: Inhibition of OATP1B1 (rosuvastatin uptake); assay type: cell-based; conditions: rosuvastatin 400 nM substrate, 30 min pre-incubation
Method: as §6, §7

[5] = Pharmacokinetics in OATP1A/1B knockout mice; assay type: in vivo; conditions: OATP1A/1B knockout (Taconic #10707), mouse, IV 1 mg/kg
Method: as §1, §8

[6] = liver at 24 h, read-out: mean liver unbound partition coefficient (Kpuu)
[7] = plasma, 1 mg/kg, heading: mean clearance
[8] = plasma, read-out: volume of distribution

Chain of human KHK-A (P50053 other isoform, or with tags, fused parts or gaps): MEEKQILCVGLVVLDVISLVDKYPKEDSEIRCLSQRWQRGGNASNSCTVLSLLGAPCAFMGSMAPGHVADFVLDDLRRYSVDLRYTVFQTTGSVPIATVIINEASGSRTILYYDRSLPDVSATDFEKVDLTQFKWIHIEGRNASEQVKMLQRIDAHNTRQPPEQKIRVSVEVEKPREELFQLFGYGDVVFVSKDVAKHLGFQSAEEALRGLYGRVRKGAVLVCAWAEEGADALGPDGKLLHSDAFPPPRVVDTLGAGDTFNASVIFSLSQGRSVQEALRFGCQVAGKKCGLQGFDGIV
Chain of human KHK-C (P50053 whole entry): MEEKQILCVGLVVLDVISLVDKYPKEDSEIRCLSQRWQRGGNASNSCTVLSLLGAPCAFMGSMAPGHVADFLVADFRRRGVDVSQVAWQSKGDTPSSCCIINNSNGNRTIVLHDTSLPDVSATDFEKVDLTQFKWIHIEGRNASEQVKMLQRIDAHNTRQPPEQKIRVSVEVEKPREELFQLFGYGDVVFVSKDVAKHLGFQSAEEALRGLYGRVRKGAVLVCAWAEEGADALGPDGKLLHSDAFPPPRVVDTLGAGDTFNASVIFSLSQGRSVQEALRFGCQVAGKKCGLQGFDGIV
Chain of OATP1B1 (Q9Y6L6 whole entry, species assumed): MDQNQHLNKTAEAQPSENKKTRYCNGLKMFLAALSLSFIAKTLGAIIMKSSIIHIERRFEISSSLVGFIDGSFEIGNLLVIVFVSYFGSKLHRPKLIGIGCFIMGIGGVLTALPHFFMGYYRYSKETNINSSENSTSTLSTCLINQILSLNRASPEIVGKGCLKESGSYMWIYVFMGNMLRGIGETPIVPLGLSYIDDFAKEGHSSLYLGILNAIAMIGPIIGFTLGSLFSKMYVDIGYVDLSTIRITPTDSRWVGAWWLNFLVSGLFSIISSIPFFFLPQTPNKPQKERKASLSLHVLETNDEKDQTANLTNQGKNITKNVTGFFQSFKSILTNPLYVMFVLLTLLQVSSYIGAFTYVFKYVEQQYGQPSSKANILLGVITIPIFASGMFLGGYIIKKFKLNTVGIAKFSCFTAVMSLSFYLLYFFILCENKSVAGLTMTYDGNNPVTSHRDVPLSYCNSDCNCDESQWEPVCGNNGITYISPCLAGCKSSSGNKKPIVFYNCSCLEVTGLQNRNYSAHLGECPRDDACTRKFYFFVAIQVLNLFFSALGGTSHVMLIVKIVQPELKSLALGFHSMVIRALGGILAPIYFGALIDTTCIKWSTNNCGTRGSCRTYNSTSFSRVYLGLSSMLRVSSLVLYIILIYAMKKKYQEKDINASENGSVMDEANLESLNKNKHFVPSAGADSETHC
Chain of OATP1B3 (Q9NPD5 whole entry, species assumed): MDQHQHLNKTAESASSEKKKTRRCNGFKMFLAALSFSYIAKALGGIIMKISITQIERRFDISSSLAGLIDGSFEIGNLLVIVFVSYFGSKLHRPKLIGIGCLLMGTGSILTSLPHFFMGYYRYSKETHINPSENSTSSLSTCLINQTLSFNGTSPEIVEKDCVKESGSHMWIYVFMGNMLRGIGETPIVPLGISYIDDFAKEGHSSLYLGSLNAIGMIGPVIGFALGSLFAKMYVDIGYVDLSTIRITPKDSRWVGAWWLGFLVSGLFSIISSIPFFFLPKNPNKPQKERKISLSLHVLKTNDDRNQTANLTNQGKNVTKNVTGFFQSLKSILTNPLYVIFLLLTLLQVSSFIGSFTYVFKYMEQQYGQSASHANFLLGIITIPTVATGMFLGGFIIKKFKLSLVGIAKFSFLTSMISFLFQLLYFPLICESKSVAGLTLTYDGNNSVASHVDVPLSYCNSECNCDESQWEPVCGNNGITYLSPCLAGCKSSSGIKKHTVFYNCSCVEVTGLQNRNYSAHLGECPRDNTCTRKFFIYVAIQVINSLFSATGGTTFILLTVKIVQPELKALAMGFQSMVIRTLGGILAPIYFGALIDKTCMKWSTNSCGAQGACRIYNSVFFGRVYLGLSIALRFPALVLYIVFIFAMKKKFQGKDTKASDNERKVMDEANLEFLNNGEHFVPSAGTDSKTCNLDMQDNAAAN

- administered IV dose recovered in bile [1]: ~10%
- urine levels [1]: negligible
- clearance ([1]; dog, plasma, 1 mg/kg, heading: mean clearance): 4.69 mL/min/kg
- half-life ([1]; dog, plasma): 2.9 h
- Vd ([1]; dog, plasma, read-out: volume of distribution): 0.546 L/kg
- mean half-life ([2]; IV 1 mg/kg): 7.4 h
- clearance ([2]; dog, plasma, 1 mg/kg, heading: mean clearance, IV 1 mg/kg): 2.52 mL/min/kg
- half-life ([2]; dog, plasma, IV 1 mg/kg): 7.4 h
- Vd ([2]; dog, plasma, IV 1 mg/kg, read-out: volume of distribution): 1.33 L/kg
- bioavailability ([2]; dog, plasma, PO 3 mg/kg): ~93%
- half-life ([2]; dog, plasma, PO 3 mg/kg): 6.9 h
- IC50 (human KHK-A): 0.019 µM
- inhibition of clearance by ABT (human hepatocytes): ~12%
- half-life [3]: 15.3 h
- IC50 (OATP1B3): 5.5 µM
- Kp uu at 24 h [4, 6]: 67.5
- clearance [4, 7]: 6.91 mL/min/kg
- half-life ([4]; plasma): 5.43 h
- Vd [4, 8]: 2.74 L/kg
- IC50 (human KHK-C): 0.009 µM
- IC50 (OATP1B1): 0.12 µM
- Kp uu at 24 h [5, 6]: 24.2
- clearance [5, 7]: 1.34 mL/min/kg
- half-life ([5]; plasma): 9.36 h
- Vd [5, 8]: 0.986 L/kg
Structure (SMILES): C[C@H]1CCN1c1nc(N2CC[C@H](CC(=O)O)C2)cc(C(F)(F)F)c1C#N [Example 1, 2-[(3R)-1-[5-cyano-6-[(2S)-2-methylazetidin-1-yl]-4-(trifluoromethyl)-2-pyridyl]pyrrolidin-3-yl]acetic Acid]

- IC50 (human KHK-A): 0.037 µM
- IC50 (human KHK-C): 0.027 µM
Structure (SMILES): C[C@H]1CCN1c1nc(N2CC(CC(=O)O)C2)cc(C(F)(F)F)c1C#N [Example 2, 2-[1-[5-cyano-6-[(2S)-2-methylazetidin-1-yl]-4-(trifluoromethyl)-2-pyridyl]azetidin-3-yl]acetic Acid]
